Data on three molecules can be found in PubChem BioAssay (NCI).

Assay in all cases: NCI-60 cell line screen, 48 h
Test [1] concerns COLO 205 colon.
Test [2] deals with HT29 colon.
Test [3] deals with K-562 leukemia.
Test [4] has as its system KM12 colon.
Test [5] has as its system MDA-MB-435.
Test [6] relates to NCI/ADR-RES ovarian.
Test [7] has as its system OVCAR-5 ovarian.
For test [8], the system named is RXF 393 renal.
Test [9] deals with SF-268 CNS.
For test [10], the system named is SK-MEL-28 melanoma.

Molecules are shown by their SMILES.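 Exposure lasted 48 hours, with cells grown in 96-well plates and compounds tested at five concentrations. Abbreviation: GI50, concentration required for 50% inhibition of growth. At the TGI there is no net growth.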 Some results are limits rather than exact numbers.

Turning to `COc1ccc(/C=C2\CCC(CN(C)C)C2=O)cc1OC` (stereo not given), the TGI in [1] stood at 10.6 µM; in test [2], 23.5 µM; in test [3] it was 9.12 µM; in [4], 10.8 µM; in [5], 16.1 µM; in [6] it was 7.19 µM. Further, the TGI amounted to 29.8 µM in [7], 5.16 µM in [8], 27.1 µM in [9] and 13.8 µM in [10].
Turning to `CN(C)CC1CCCCCC(CN(C)C)C1=O` (stereo not given), the GI50 is 1.2 µM in test [1]; 1.35 µM in test [2]; 1.44 µM in test [3]; 15.9 µM in test [4]; 2.93 µM in [5]; 3.39 µM in test [6]. Besides, the GI50 in [7] was 8.29 µM; in [8] it was 1.58 µM; in [9], 7.72 µM; in [10], 3.65 µM. Moreover, the TGI was 2.68 µM in test [1]; 2.78 µM in [2]; 7.07 µM in test [3]; 37.1 µM in [4]; 13.2 µM in test [5]; 14.3 µM in test [6]. Also, the TGI in [7] is 22 µM; in test [8], 3.35 µM; in [9], 23.4 µM; in test [10], 10.5 µM.
Take `COc1cc(C2CC(c3ccc(N(C)C)cc3)=NN2C(C)=O)cc(OC)c1OC` (stereo not given): the GI50 in test [1] was 3.06 µM; in test [2] it was 0.909 µM; in test [3], 1.74 µM; in test [4] it was 0.933 µM; in test [5], 0.231 µM; in test [6] it was 3.78 µM. Besides, the GI50 was above 27.8 µM in [7], 2.73 µM in test [8], 3.69 µM in [9] and 21 µM in [10]. Besides, the TGI is above 41.4 µM in test [1]; above 39.5 µM in test [2]; above 100 µM in [3]; above 52.8 µM in test [4]; 1.18 µM in [5]; above 100 µM in [6]. Besides, the TGI in test [7] is above 100 µM; in [8], above 22.9 µM; in [9] it was above 100 µM; in test [10], above 100 µM.
